The values that follow are results of earlier work, collected in US9993560B2, “Rifaximin complexes” (Cipla Limited, priority 2008, dated 2018).

As to `CO[C@H]1/C=C/O[C@@]2(C)Oc3c(C)c(O)c4c(O)c(c5c(nc6cc(C)ccn65)c4c3C2=O)NC(=O)/C(C)=C\C=C\[C@H](C)[C@H](O)[C@@H](C)[C@@H](O)[C@@H](C)[C@H](OC(C)=O)[C@@H]1C` [β-form of rifaximin], the “solubility compared with other known forms of rifaximin” value is “least soluble known form of rifaximin”.
With `CO[C@H]1/C=C/O[C@@]2(C)Oc3c(C)c(O)c4c(O)c(c5c(nc6cc(C)ccn65)c4c3C2=O)NC(=O)/C(C)=C\C=C\[C@H](C)[C@H](O)[C@@H](C)[C@@H](O)[C@@H](C)[C@H](OC(C)=O)[C@@H]1C` [rifaximin, (2S, 16Z, 18E, 20S, 21S, 22R, 23R, 24R, 25S, 26S, 27S, 28E)-5,6,21,23,25-pentahydroxy-27-methoxy-2,4,11,16,20,22,24,26-octamethyl-2,7-(epoxypentadeca-[1,11,13]-trienimino)benzofuro-[4,5-e]-pyrido-[1,2-a]-benzimidazole-1,15-(2H)-dione, 25-acetate], the solubility in water entry (water) was “sparingly soluble”.
